{
  "source": "patent US20100092402A1",
  "about": "“TREATMENT OF RESPIRATORY DISEASE” (Mucokinetica Ltd., priority 2007, published 2010)",
  "key": {"nasal epithelium": {"system": "nasal epithelium", "assay": "Mucus host-defence responses during nasal perfusion", "type": "in vivo, human", "excerpt": "Perfusion of the nasal epithelium with low chloride Ringer/HEPES buffer imposes a chemical gradient for chloride secretion, and therefore also provides a drive for fluid secretion.\nMucus host-defence episodes were scored 1 to 3 on the basis of the number of features and the magnitude of the responses observed. FIG. 10 reports the score of the episodes recorded, and indicates the time of their occurrence in the perfusion protocol."}, "[1]": {"system": "cortical collecting duct of the rabbit kidney", "details": "Muto et al. 1993, cited from earlier work"}, "[2]": {"system": "amiloride-sensitive (sodium-dependent) component of nasal PD", "assay": "Nasal PD measurement during perfusion of human nasal epithelium", "type": "in vivo", "details": "for average percent of maximum PD change in response to 10^−5 M-amiloride: 4 experiments, before perfusion 94% and 80%", "protocol": "The method of measurement of nasal PD was an adaptation of that described by Standaert et al. (2004).\nRinger/HEPES buffer solution was prepared containing 148 mM-NaCl, 4.05 mM-KCl, 1.2 mM-CaCl2, 1.2 mM-MgCl2, 2.4 mM-K2HPO4, 0.4 mM-KH2PO4, 10 mM-HEPES, and adjusted to pH 7.4. Low chloride Ringer/HEPES buffer solution was prepared by replacing NaCl with 148 mM-Na gluconate in the Ringer solution components.\nAgar electrodes were prepared with 3.7% agarose dissolved in Ringer/HEPES buffer pH 7.4. The reference electrode was placed and taped in contact with a small area on the forearm where the epidermis had been removed by gentle abrasion. A dual lumen nasal recording electrode was prepared using a lm length of soft plastic tubing 2.4 mm diameter, into which 1 mm diameter polythene tubing was inserted through the wall and along the lumen for 15 cm from one end. The 2.4 mm diameter tubing was filled with 3.7% agarose dissolved in Ringer/HEPES buffer pH 7.4. The 1 mm diameter tubing was used for perfusion of buffer solutions and drugs to the nasal epithelium. The ends of the agar electrodes were each placed in contact with a calomel half-cell in 3 M-KCl solution. Voltages were measured by connecting the calomel electrodes to a high impedance voltmeter (Keithley 617 programmable electrometer). Output from the voltmeter was recorded by connection to a Biopac MP100 data aquisition unit and PC running Acqknowledge III data acquisition software.\nNasal PD was recorded via the recording electrode placed in contact with the nasal epithelium approximately 4 cm inside the nostril. The nasal epithelium was perfused according to the following schedule and nasal PD was recorded continuously.\n1. Ringer/HEPES buffer was perfused at 0.5 ml/min for 5 min, and starting baseline PD was recorded.\n2. Perfusion was then switched to low chloride Ringer/HEPES buffer pH 7.4 for 30 min during which time initial hyperpolarisation of the epithelium occurred.\n3. The nasal epithelium was then perfused with 10^−5 M-amiloride in low chloride Ringer/HEPES buffer pH 7.4 for 10 min. Measurement of the amiloride-sensitive (sodium-dependent) component of nasal PD was then made by measuring the difference between the average PD recorded over the 2 min before perfusion with amiloride and the average PD recorded in the period 4 to 6 min after perfusion with amiloride.\n4. Amiloride was washed away from the nasal epithelium by perfusion with low chloride Ringer/HEPES buffer pH 7.4 for 30 min.\n5. Steps 3 and 4 were then repeated twice more.\n6. The nasal epithelium was then perfused with 3 μM 6-amidino-2-napthyl 4-guanidinobenzoate in low chloride Ringer/HEPES buffer pH 7.4 for 60 min.\n7. Steps 3 and 4 were then repeated a further twice, followed by either a period of administration of amiloride (3 experiments), or a final repetition of both steps 3 and 4 (1 experiment).\nOver the 5 h time course of each experiment nasal PD drifted and oscillated. […] Changes in nasal PD caused by perfusion of amiloride were calculated as the difference between the mean PD recorded in the 2 min period before perfusion with amiloride and the mean PD recorded in the plateau period 4 to 6 min after start of perfusion with amiloride. Within each experiment the change in nasal PD at each period of application of amiloride was expressed as a percentage of the maximum change observed in the experiment."}, "prostasin": {"system": "prostasin", "details": "rats infused i.v. for 24h; cited from earlier work"}},
  "data": [
    {"molecule": "N=C(N)c1ccc2cc(OC(=O)c3ccc(N=C(N)N)cc3)ccc2c1", "note": "[6-amidino-2-napthyl 4-guanidinobenzoate]", "values": [
      {"measurement": "scores for episodes of mucus host-defence response (scored 1 to 3)", "setting": "nasal epithelium; perfusion of 3.10^−6 M in low chloride Ringer/HEPES buffer", "value": "Highest scores"},
      {"measurement": "mucus host-defence responses", "setting": "nasal epithelium; perfusion with 3.10^−6 M in low chloride Ringer/HEPES buffer", "value": "stimulated episodes of mucus host-defence responses"},
      {"measurement": "effect on the rabbit kidney model", "setting": "[1]; 10^−5 M", "value": "without effect"},
      {"measurement": "change in transepithelial voltage, as share of that achievable by 5.10^−6 M amiloride", "setting": "[1]; perfused at 10^−4 M", "value": 40, "unit": "%"},
      {"measurement": "onset of change in transepithelial voltage", "setting": "[1]; perfusion of 10^−4 M", "value": "≤ 30", "unit": "s"},
      {"measurement": "time following perfusion for which amiloride-sensitive component of nasal PD was reduced", "setting": "[2]; 3.10^−6 M in low chloride Ringer/HEPES buffer pH 7.4 for 60 min", "value": "up to 80 min"},
      {"measurement": "average percent of maximum PD change in response to 10^−5 M-amiloride", "setting": "[2]; 40 min after perfusion of 3.10^−6 M for 60 min", "value": 29, "unit": "%"},
      {"measurement": "average percent of maximum PD change in response to 10^−5 M-amiloride", "setting": "[2]; 80 min after perfusion of 3.10^−6 M for 60 min", "value": 55, "unit": "%"},
      {"measurement": "average percent of maximum PD change in response to 10^−5 M-amiloride", "setting": "[2]; immediately following 60 min perfusion of 3.10^−6 M", "value": 49, "unit": "%"},
      {"measurement": "levels of prostasin secreted in the urine", "setting": "prostasin", "value": "reduced levels of prostasin"}
    ]}
  ]
}
